Counter-ions that a name gives are not always drawn.
Assays:
[1] = molecular target: T1, SHMT2 (mitochondrial serine hydroxymethyltransferase) (Homo sapiens, UniProt P34897); experiment: DSF titration of apo-enzyme with PLP (Tm vs concentration); type: binding; parameters: apo-SHMT2
T1 sequence (P34897 30-504): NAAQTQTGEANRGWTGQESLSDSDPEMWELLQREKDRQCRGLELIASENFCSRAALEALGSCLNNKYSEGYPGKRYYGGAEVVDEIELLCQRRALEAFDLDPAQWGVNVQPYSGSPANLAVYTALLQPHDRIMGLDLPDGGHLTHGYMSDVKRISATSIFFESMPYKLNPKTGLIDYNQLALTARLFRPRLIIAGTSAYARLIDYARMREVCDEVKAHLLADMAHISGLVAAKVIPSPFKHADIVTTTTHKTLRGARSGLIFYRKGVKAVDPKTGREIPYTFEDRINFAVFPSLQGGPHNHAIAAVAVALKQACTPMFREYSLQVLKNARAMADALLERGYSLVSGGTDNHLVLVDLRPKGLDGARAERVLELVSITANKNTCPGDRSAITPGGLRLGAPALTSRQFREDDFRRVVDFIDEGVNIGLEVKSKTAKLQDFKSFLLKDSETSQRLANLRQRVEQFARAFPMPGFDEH

[2] = molecular target: T1, SHMT2 (mitochondrial serine hydroxymethyltransferase); experiment: spectrophotometric quinonoid-intermediate assay ([…] nm) with purified recombinant enzyme, mixed-type inhibition fit; supported by DSF; type: biochemical
[3] = molecular target: T2, SHMT1 (cytosolic serine hydroxymethyltransferase) (Homo sapiens, UniProt P34896); experiment: spectrophotometric quinonoid-intermediate assay ([…] nm) with purified recombinant enzyme; type: biochemical
T2 sequence (P34896 2-483): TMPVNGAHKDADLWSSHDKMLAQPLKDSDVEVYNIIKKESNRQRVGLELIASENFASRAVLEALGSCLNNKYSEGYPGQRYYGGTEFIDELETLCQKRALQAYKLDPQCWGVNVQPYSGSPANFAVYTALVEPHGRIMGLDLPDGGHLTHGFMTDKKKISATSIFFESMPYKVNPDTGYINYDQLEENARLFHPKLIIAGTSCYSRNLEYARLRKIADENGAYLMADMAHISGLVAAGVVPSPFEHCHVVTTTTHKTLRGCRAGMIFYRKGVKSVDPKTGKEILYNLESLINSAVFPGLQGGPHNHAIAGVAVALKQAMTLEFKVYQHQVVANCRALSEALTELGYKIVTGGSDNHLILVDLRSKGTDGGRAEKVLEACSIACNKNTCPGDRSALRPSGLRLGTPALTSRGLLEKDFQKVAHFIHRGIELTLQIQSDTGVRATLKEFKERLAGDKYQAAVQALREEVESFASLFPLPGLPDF

Row | Kd [1] [mM] | Ki [2] [mM] | Ki [3] [mM] | SMILES
1 | 0.0003 | – | – | Cc1ncc(COP(=O)(O)O)c(C=O)c1O [PLP, pyridoxal-5′-phosphate]
2 | – | 13.3 ± 2.1 | 100 ± 33 | CN(C)C(=N)N=C(N)N [MET, 1,1-dimethylbiguanide hydrochloride]
